Data from patent US12398119B2, “Piperazine azaspiro derivatives” (PFIZER INC., priority 2018, dated 2025).
Where two headings read alike, the source gives them in different places.

Biological target: T1, Human M4 mAChR (Homo sapiens, UniProt P08173)
T1 construct: host or cells: HEK293 (Sor-L9 HEK293 human/M4/GloSensor Cell Clone Number 40)
T1 sequence (P08173 1-479): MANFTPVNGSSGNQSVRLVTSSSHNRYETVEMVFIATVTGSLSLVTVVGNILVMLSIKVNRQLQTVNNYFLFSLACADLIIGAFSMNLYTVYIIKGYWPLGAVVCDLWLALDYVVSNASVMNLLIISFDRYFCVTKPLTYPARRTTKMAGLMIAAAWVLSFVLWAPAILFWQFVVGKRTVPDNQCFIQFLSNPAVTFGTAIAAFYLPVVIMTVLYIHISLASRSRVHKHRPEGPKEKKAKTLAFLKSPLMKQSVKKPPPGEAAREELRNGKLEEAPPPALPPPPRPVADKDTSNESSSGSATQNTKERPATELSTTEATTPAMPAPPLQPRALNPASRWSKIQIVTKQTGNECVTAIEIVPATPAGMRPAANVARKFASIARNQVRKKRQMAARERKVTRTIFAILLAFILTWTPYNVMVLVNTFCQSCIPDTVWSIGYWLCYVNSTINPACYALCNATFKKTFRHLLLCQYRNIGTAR
Experiment: Muscarinic hM4 Agonist GloSensor cAMP Assay
Assay type: cell-based
Description: Muscarinic hM4 Agonist GloSensor cAMP Assay Methods
Compounds were prepared in advance of the assay. Test compounds were solubilized in 100% dimethyl sulfoxide (DMSO, Sigma D8418) to a concentration of 30 mM. A 10-point intermediate dilution series using half log dilutions was created in 100% DMSO with a top concentration of 4 mM. The serially diluted compounds were spotted as 200 nL/well in a 384-well plate (Matrix Catalog Number 4325). The final compound concentration range in the assay was […] to 0.3 nM with a final DMSO concentration of 0.25%.
Human M4 mAChR expressing stable cell lines were generated using a parental HEK cell expressing the GloSensor construct (Promega Sor-L9 HEK293 human/M4/GloSensor Cell Clone Number 40). The cells were grown in 90% Dulbecco's Modified Eagle Medium (DMEM, Gibco 11960), 10% fetal bovine serum (FBS, Hyclone CH.30160-03), 1% Penicillin/Streptomycin (Gibco 15070-063), 500 µg/mL Geneticin (Gibco 10131-027), 200 µg/mL Hygromycin B (Invitrogen 10687-010) and 1% Glutamax (Thermo Fisher 35050061).
One day prior to assay, the cells were lifted using dissociation buffer (Gibco 13151-014) and spun in a centrifuge at 250 times gravity for 5 minutes at room temperature. Supernatant was removed and the cell pellet was resuspended in growth media to a concentration of […]. Cells were then added to white poly-d-lysine coated plates (Becton Dickinson 356661) as 40 μL per well (25,000 cells) and incubated overnight (20-24 hours) in a 37° C. humidified incubator with 5% carbon dioxide (C02).
The following day, culture media was removed from the cell plates and replaced with […] equilibration medium containing 88% CO2-independent medium (Invitrogen 18045088), 10% FBS and 2% GloSensor cAMP reagent (Promega E1291) that had been warmed to 37° C. Plates were then covered and incubated for 2 hours at room temperature while protected from light.
To the previously prepared serially diluted compound plates, 200 nL of 4 mM ACh (Sigma A2661, 10 μM final) or 200 nL of 100% DMSO (0.25% final) was added to the positive and negative control wells, respectively. Compound plates were then diluted by adding 16 μL of C02-independent media containing 10% FBS and an EC80 concentration of isoproterenol (Sigma 16504). Prior to compound testing, concentration response curves were run for isoproterenol to determine the EC80 concentration. At the end of the 2 hour equilibration, 10 µL was transferred from the compound plates to the cell plates. The cell plates were incubated an additional 7 minutes at room temperature and then read using a Multi-label EnVision plate reader (Perkin Elmer) for luminescence.
The raw data, expressed as relative light units, was analyzed using Activity Base (IDBS). The percent effect at each compound concentration was calculated based on and relative to the amount of cAMP produced by the positive and negative control wells contained on each assay plate. The positive control wells contained an EC100 concentration of ACh and the negative control wells contained only DMSO. The concentration and % effect values were fit using a four-parameter logistic dose response equation, and the concentration required for 50% effect (EC50) was determined as well as the maximum asymptote of the concentration response curve to define the efficacy.

[1] = Emax: maximum asymptote of concentration response curve, relative to ACh positive control (EC100) and DMSO, geometric mean, read-out: % maximum effect
[2] = HEK293 human/M4/GloSensor cells, EC80 isoproterenol, geometric mean, number of determinations in parentheses, read-out: EC50
[3] = enantiomers reported in footnotes to Table 1, number of determinations in parentheses, read-out: M4 EC50
[4] = enantiomers reported in footnotes to Table 1, number of determinations in parentheses, read-out: M4 Emax

| Compound | Emax [1] [%] | EC50 [2] [nM] | EC50 [3] [nM] | Emax [4] [%] |
| --- | --- | --- | --- | --- |
| CCOC(=O)N1CC2(CCC(N3CCN(c4cccnc4OC(F)(F)F)CC3)C2)C1 (single isomer, unassigned) [enantiomer of Example 20, ethyl 6-{4-[2-(trifluoromethoxy)pyridin-3-yl]piperazin-1-yl}-2-azaspiro[3.4]octane-2-carboxylate] |  |  | 3600 | 95.3 |
| CCOC(=O)N1CC2(CC[C@@H](N3CCN(c4ncccc4OC)CC3)C2)C1 [Example 6, ethyl (6R)-6-[4-(3-methoxypyridin-2-yl)piperazin-1-yl]-2-azaspiro[3.4]octane-2-carboxylate] | 86.3 | 1.57 |  |  |
| CCOC(=O)N1CC2(CCC(N3CCN(c4cccnc4OC(F)F)CC3)C2)C1 (single isomer, unassigned) [Example 19, ethyl 6-{4-[2-(difluoromethoxy)pyridin-3-yl]piperazin-1-yl}-2-azaspiro[3.4]octane-2-carboxylate] | 78.4 | 1.45 |  |  |
| CCOC(=O)N1CC2(CCC(N3CCN(c4ncccc4-c4sc(C)nc4C)CC3)C2)C1 (stereo not drawn) [Example 36, ethyl 6-{4-[3-(2,4-dimethyl-1,3-thiazol-5-yl)pyridin-2-yl]piperazin-1-yl}-2-azaspiro[3.4]octane-2-carboxylate] | 80.6 | 7.72 |  |  |
| CCOC(=O)N1CC2(CCC(N3CCN(c4ncc(F)cc4-c4cscn4)CC3)C2)C1 (single isomer, unassigned) [enantiomer of Example 26, ethyl 6-{4-[5-fluoro-3-(1,3-thiazol-4-yl)pyridin-2-yl]piperazin-1-yl}-2-azaspiro[3.4]octane-2-carboxylate] |  |  | 152 | 67.1 |
| CCOC(=O)N1CC2(CC[C@@H](N3CCN(c4ncccc4-n4cc(C)cn4)CC3)C2)C1 [Example 9, ethyl (6R)-6-{4-[3-(4-methyl-1H-pyrazol-1-yl)pyridin-2-yl]piperazin-1-yl}-2-azaspiro[3.4]octane-2-carboxylate] | 68.2 | 14.8 |  |  |
| CCOC(=O)N1CC2(CC[C@@H](N3CCN(c4ncccc4-c4nnc(C)o4)CC3)C2)C1 [Example 51, ethyl (6R)-6-{4-[3-(5-methyl-1,3,4-oxadiazol-2-yl)pyridin-2-yl]piperazin-1-yl}-2-azaspiro[3.4]octane-2-carboxylate] | 68.6 | 1.99 |  |  |
| CCOC(=O)N1CC2(CCC(N3CCN(c4ncccc4C4CC4)CC3)C2)C1 (single isomer, unassigned) [enantiomer of Example 22, ethyl 6-[4-(3-cyclopropylpyridin-2-yl)piperazin-1-yl]-2-azaspiro[3.4]octane-2-carboxylate] |  |  | 11.6 | 103 |
| CCOC(=O)N1CC2(CCC(N3CCN(c4ncccc4-c4nccnc4C)CC3)C2)C1 (stereo not drawn) [Example 15, ethyl 6-{4-[3-(3-methylpyrazin-2-yl)pyridin-2-yl]piperazin-1-yl}-2-azaspiro[3.4]octane-2-carboxylate] | 58.5 | 17.3 |  |  |
| CCOC(=O)N1CC2(CCC(N3CCN(c4ncccc4C4CC4)CC3)C2)C1 (single isomer, unassigned) [Example 22, ethyl 6-[4-[3-cyclopropylpyridin-2-yl)piperazin-1-yl]-2-azaspiro[3.4]octane-2-carboxylate] | 107 | < 0.074 |  |  |
| CCOC(=O)N1CC2(CCC(N3CCN(c4cccnc4OC(F)(F)F)CC3)C2)C1 (single isomer, unassigned) [Example 20, ethyl 6-{4-[2-(trifluoromethoxy)pyridin-3-yl]piperazin-1-yl}-2-azaspiro[3.4]octane-2-carboxylate] | 75.3 | 9.9 |  |  |

More lines, now with the values ahead:

| Emax [1] [%] | EC50 [2] [nM] | EC50 [3] [nM] | Emax [4] [%] | Compound |
| --- | --- | --- | --- | --- |
| 85 | 143 |  |  | CCOC(=O)N1CCC2(CC(N3CCN(c4ncccc4-c4ccc(C#N)cn4)CC3)C2)C1 (single isomer, unassigned) [Example 23, ethyl 2-[4-(5-cyano-2,3′-bipyridin-2′-yl)piperazin-1-yl]-6-azaspiro[3.4]octane-6-carboxylate] |
| 96.2 | 1.28 |  |  | CCOC(=O)N1CC2(CCC(N3CCN(c4ncccc4-c4cnsn4)CC3)C2)C1 (single isomer, unassigned) [Example 34, ethyl 6-{4-[3-(1,2,5-thiadiazol-3-yl)pyridin-2-yl]piperazin-1-yl}-2-azaspiro[3.4]octane-2-carboxylate] |
| 92.6 | 4.82 |  |  | CCOC(=O)N1CCC2(CC(N3CCN(c4ncccc4-c4cnn(C)c4)CC3)C2)C1 (stereo not drawn) [Example 13, ethyl 2-{4-[3-(1-methyl-1H-pyrazol-4-yl)pyridin-2-yl]piperazin-1-yl}-6-azaspiro[3.4]octane-6-carboxylate] |
| 54.9 | 5.11 |  |  | CCOC(=O)N1CC2(CCC(N3CCN(c4ncccc4-c4ncco4)CC3)C2)C1 (stereo not drawn) [Example 18, ethyl 6-{4-[3-(1,3-oxazol-2-yl)pyridin-2-yl]piperazin-1-yl}-2-azaspiro[3.4]octane-2-carboxylate] |
| 70.6 | 53.8 |  |  | CCOC(=O)N1CC2(CC(N3CCN(c4ncccc4-c4ccc(C#N)cn4)CC3)C2)C1 [Example 24, ethyl 6-[4-(5-cyano-2,3′-bipyridin-2′-yl)piperazin-1-yl]-2-azaspiro[3.3]heptane-2-carboxylate] |
| 87.2 | 2.17 |  |  | CCOC(=O)N1CC2(CC[C@@H](N3CCN(c4ncccc4-c4cscn4)CC3)C2)C1 [Example 4, ethyl (6R)-6-{4-[3-(1,3-thiazol-4-yl)pyridin-2-yl]piperazin-1-yl}-2-azaspiro[3.4]octane-2-carboxylate] |
|  |  | 268 | 52.7 | CCOC(=O)N1CC2(CCC(N3CCN(c4ncccc4-c4cnc(C#N)cn4)CC3)C2)C1 (single isomer, unassigned) [enantiomer of Example 41, ethyl 6-{4-[3-(5-cyanopyrazin-2-yl)pyridin-2-yl]piperazin-1-yl}-2-azaspiro[3.4]octane-2-carboxylate] |
| 104 | 24.5 |  |  | CCOC(=O)N1CCC2(CC(N3CCN(c4ncccc4-c4cscn4)CC3)C2)C1 (stereo not drawn) [Example 16, ethyl 2-{4-[3-(1,3-thiazol-4-yl)pyridin-2-yl]piperazin-1-yl}-6-azaspiro[3.4]octane-6-carboxylate] |
| 92.3 | 1.31 |  |  | CCOC(=O)N1CC2(CCC(N3CCN(c4ncccc4-c4cnsn4)CC3)C2)C1 (stereo not drawn) [Example 33, ethyl 6-{4-[3-(1,2,5-thiadiazol-3-yl)pyridin-2-yl]piperazin-1-yl}-2-azaspiro[3.4]octane-2-carboxylate] |
| 83.9 | 8.49 |  |  | CCOC(=O)N1CC2(CCC(N3CCN(c4ncccc4-c4cnc(O)cn4)CC3)C2)C1 (stereo not drawn) [Example 48, ethyl 6-{4-[3-(5-hydroxypyrazin-2-yl)pyridin-2-yl]piperazin-1-yl}-2-azaspiro[3.4]octane-2-carboxylate] |
